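Assay format: 96-well plates, 48-hour exposure. The concentration for full growth arrest is given as TGI.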
Key:
Assay in all cases: NCI tumour cell line growth inhibition, 48 h
M19-MEL melanoma = test system: M19-MEL melanoma
UACC-257 melanoma = test system: UACC-257 melanoma
CAKI-1 renal = test system: CAKI-1 renal
A549 NSCLC = test system: A549 NSCLC
SF-539 CNS = test system: SF-539 CNS
UO-31 renal = test system: UO-31 renal
OVCAR-4 ovarian = test system: OVCAR-4 ovarian
KM20L2 colon = test system: KM20L2 colon
CCRF-CEM leukemia = test system: CCRF-CEM leukemia
OVCAR-3 ovarian = test system: OVCAR-3 ovarian
786-0 renal = test system: 786-0 renal
LXFL 529 NSCLC = test system: LXFL 529 NSCLC
UACC-62 melanoma = test system: UACC-62 melanoma
RXF 393 renal = test system: RXF 393 renal
NCI-H460 lung = test system: NCI-H460 lung
SNB-78 CNS = test system: SNB-78 CNS
OVCAR-8 ovarian = test system: OVCAR-8 ovarian
DMS 273 small cell lung = test system: DMS 273 small cell lung
K-562 leukemia = test system: K-562 leukemia
HOP-62 NSCLC = test system: HOP-62 NSCLC
SF-268 CNS = test system: SF-268 CNS
M14 melanoma = test system: M14 melanoma
MOLT-4 leukemia = test system: MOLT-4 leukemia
SN12C renal = test system: SN12C renal
SNB-75 CNS = test system: SNB-75 CNS
SK-MEL-28 melanoma = test system: SK-MEL-28 melanoma
RXF-631 renal = test system: RXF-631 renal
SK-MEL-5 melanoma = test system: SK-MEL-5 melanoma
DLD-1 colon = test system: DLD-1 colon
SK-MEL-2 melanoma = test system: SK-MEL-2 melanoma
SNB-19 CNS = test system: SNB-19 CNS
SF-295 CNS = test system: SF-295 CNS
XF 498 CNS = test system: XF 498 CNS
NCI-H23 lung = test system: NCI-H23 lung
HCT-15 colon = test system: HCT-15 colon
KM12 colon = test system: KM12 colon
HCT-116 colon = test system: HCT-116 colon
IGROV1 ovarian = test system: IGROV1 ovarian
SW-620 colon = test system: SW-620 colon
MALME-3M melanoma = test system: MALME-3M melanoma
DMS 114 small cell lung = test system: DMS 114 small cell lung
HT29 colon = test system: HT29 colon
A498 renal = test system: A498 renal
EKVX NSCLC = test system: EKVX NSCLC
TK-10 renal = test system: TK-10 renal
LOX IMVI melanoma = test system: LOX IMVI melanoma
ACHN renal = test system: ACHN renal
RPMI-8226 leukemia = test system: RPMI-8226 leukemia
SK-OV-3 ovarian = test system: SK-OV-3 ovarian
HCC-2998 colon = test system: HCC-2998 colon
OVCAR-5 ovarian = test system: OVCAR-5 ovarian
U251 CNS = test system: U251 CNS
COLO 205 colon = test system: COLO 205 colon

Measured: TGI

O=C1Nc2nc3ccccc3n2N=C2CCCC12 (stereo not drawn)
> 100 µM: all assays above

Reference: PubChem BioAssay (NCI)
